Data: patent US20230201151A1, “FORMULATIONS AND METHODS FOR TREATING ACUTE RESPIRATORY DISTRESS SYNDROME, ASTHMA, OR ALLERGIC RHINITIS” (UNIVERSITY OF FLORIDA RESEARCH FOUNDATION, INC., priority 2020, published 2023)

Columns and labels:
Type in all cases: cell-based, human
[1] = system: HBECs; assay: TEER (epithelial barrier function) in differentiated HBECs, Ussing chamber
Description: (§1) High individual variation in benzamil-sensitive current and TEER in HBECs. In an Ussing chamber-based experimental design, basal short-circuit current (Isc) and transepithelial electrical resistance (TEER) were recorded in differentiated HBECs from two lung donors that were grown on snapwells at an air-liquid interface for 28 to 35 days. Benzamil, a potent ENaC blocker was used to determine ENaC activity by calculating benzamil-sensitive Isc from changes in Isc that occur 15 minutes after adding 6 μM benzamil to the apical side of cells. […] Therefore, normalized data were used for all subsequent experiments for statistical analyses relating to FIGS. 13-18.
(§2) Basal treatment with cytokines [IL-13 (Abcam), IL-4 (PeproTech), TNF-α, IFN-γ and TGF-β1 (R&D Systems)] diluted in ALI medium started as early as day 14 post differentiation. Individual cytokines or cytokine cocktails were added to the culture medium at the desired concentrations and cells were incubated with the cytokines for a maximum of 16 days. ALI medium containing cytokines was changed every two days. Age-matched HBECs were assigned to the following treatment groups:
(§3) II Time-dependent studies: These studies were done using a concentration that ensured maximum inhibition of benzamil-sensitive Isc and TEER. HBECs were treated with respective cytokines for 2, 4, 6, 8, 10, 12, 14, or 16 days. IFN-γ, TNF-α or TGF-β1 at 1 ng/mL, IL-13 at 20 ng/mL and IL-4 at 2 ng/mL were used.
(§4) III Cytokine cocktails: were prepared using IFN-γ and TNF-α at 0.05, 0.5, 2.5, 5 and 10 ng/mL while TNF-α, IFN-γ and TGF-β1 at 1 ng/mL for each of the cytokines was added to the culture media for 7 days.
(§5) Ussing chamber experiments: Snapwells with differentiated HBECs that were incubated with cytokines or age-matched HBECs without cytokine exposure were mounted in Ussing chambers (Physiologic Instruments), and cells were either bathed in isotonic ringer solution containing 113.8 mM Na^+, 93.6 mM Cl^−, 25 mM HCO3^−, 5.2 mM K^+, 2.4 mM HPO4^−, 0.4 mM H2PO4^−, 1.2 mM Mg^2+, 1.2 mM Ca^2+, and 75 mM mannitol, or in AA-EC01. Glucose (5 mM) was added to the basal side, and chambers were bubbled with 95% O2 and 5% CO2 at 37° C. AA-EC01 contained 8 mM lysine, 8 mM tryptophan, 8 mM arginine, 8 mM glutamine, and 1.2 mM tyrosine, and AANC contained 8 mM leucine, 8 mM cysteine, 8 mM isoleucine, 8 mM aspartic acid and 8 mM glutamate (Ajinomoto), both diluted in an electrolyte solution containing 113.8 mM Na^t, 93.6 mM Cl^−, 25 mM HCO3^−, 5.2 mM K^+, 2.4 mM HPO4^−, 0.4 mM H2PO4^−, 1.2 mM Mg′, 1.2 mM Ca^2+ and 40 mM mannitol at pH 7.4 and 300 mOsm. Cell cultures were allowed to equilibrate in the Ussing chambers for 30 minutes while continuously voltage clamped to 0 mV. Basal short circuit current (Isc) and transepithelial electrical resistance (TEER) were recorded at 30-second intervals, and benzamil-sensitive Isc was calculated from the difference of basal Isc recorded after 30 minutes and Isc measured at 15 minutes after adding 6 μM of benzamil (ThermoFisher) to the apical side.
(§6) Statistical analysis: Results are presented as mean±standard error of mean (SEM). Analyses were performed with OriginPro 2018 software package. For each treatment group, values were tested for normal distribution using the Shapiro-Wilk normality test. […] The values were normalized to controls within the group, and data were pooled for comparison between groups. Kruskal-Wallis test was used for comparing the overall effect of ringer, AA-EC01 and AANC on benzamil-sensitive Isc and TEER, and Mann Whitney U test was used for pairwise comparison within the group and for comparison between basal values for each cytokine at zero ng/mL or day zero with each concentration and time period studied. P<0.05 was considered significant, and NS indicates not significant.

[2] = system: ENaC; assay: Benzamil-sensitive Isc (ENaC activity) in differentiated HBECs, Ussing chamber
Description: as §1, §2, §3, §4, §5, §6

[3] = system: HBEC; assay: Barrier function in IL-13-treated differentiated HBEC, Examples 1-2; settings: IL-13 20 ng/mL
Description: Experimental design: IL-13 treatment with 20 ng/mL media for 4 and 14 days. Ussing chamber experiment in Basic Ringer (5 mM glucose in basolateral side).
To investigate the importance of ENaC during inflammation and explore how its activity is modulated during the evolution of ARDS, the present inventors used primary cultures of human bronchial epithelial cells (HBEC) harvested from normal human lungs, which had been differentiated in vitro in an air-media interphase (air on the apical side and media on the basolateral side) for 30 days. Differentiated HBEC were used for electrophysiology experiments to evaluate the effect of IL-13 on these cells. […] Similarly, IL-13 (20 ng/mL) caused a maximum reduction in barrier function on day 8 of exposure.

## IL-13: Th2 cytokine (Abcam) added to HBEC culture medium
[1]; IL-13 2 ng/mL, 14 days
  TEER, normalized to control: 59.9±7.6%
[1]; IL-13 4 ng/mL, 14 days
  TEER, normalized to control (maximum reduction): 41.3±6.9%
[1]; IL-13 20 ng/mL, day 10
  TEER, normalized to control (maximum reduction): 48.7±3.6%
[2]; IL-13 0.1 ng/mL, 14 days
  benzamil-sensitive Isc, normalized to control: 50.9±9.6%
[2]; IL-13 20 ng/mL, 16-day incubation
  day by which benzamil-sensitive Isc was completely suppressed: ≤ 8 days
[2]; IL-13 20 ng/mL, day 2
  benzamil-sensitive Isc, of baseline value: 25.0±5%
[2]; IL-13, 14 days
  concentration at which benzamil-sensitive Isc was completely abolished: 8 ng/mL
[3]
  day of maximum reduction in barrier function: 8 days
